The text below walks through data of patent publication US12091405B2, “Substituted pyrazole compounds as indoleamine 2,3-dioxygenase inhibitors” (Merck Sharp & Dohme LLC, priority 2018, dated 2024).

In this test the target is IDO1 (Homo sapiens, UniProt P14902). In words: IDO1 Cellular Assay in HeLa Cells Stimulated with IFNγ. To be noted: IFNγ 100 ng/mL, 300 uM L-tryptophan, about 48 hours, fluorescence readout, read-out: IDO1 HELA Cell Assay, IC50. Format: cell-based. The method, then: Biological Assays IDO1 Cellular Assay in HeLa Cells Stimulated with IFNγ
IDO1, sequence (P14902 whole entry): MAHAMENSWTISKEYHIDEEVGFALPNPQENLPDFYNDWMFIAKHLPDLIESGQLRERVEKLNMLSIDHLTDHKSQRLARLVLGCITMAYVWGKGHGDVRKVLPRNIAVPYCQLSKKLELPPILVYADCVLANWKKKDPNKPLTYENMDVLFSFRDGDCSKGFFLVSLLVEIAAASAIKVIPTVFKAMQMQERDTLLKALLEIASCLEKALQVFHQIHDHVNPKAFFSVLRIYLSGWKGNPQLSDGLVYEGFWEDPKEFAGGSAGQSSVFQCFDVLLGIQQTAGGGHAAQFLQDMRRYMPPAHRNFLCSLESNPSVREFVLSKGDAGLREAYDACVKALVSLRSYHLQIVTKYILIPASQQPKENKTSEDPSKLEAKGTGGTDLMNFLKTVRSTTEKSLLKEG
HeLa cells were cultured in complete HeLa culture medium (90% EMEM, 10% heat-inactivated fetal bovine serum) and expanded to about 1×10^9 cells. The cells were then collected and frozen down at 1×10^7 cells/vial in 1 mL frozen medium (90% complete HeLa culture medium, 10% DMSO).
Compounds to be tested were serially diluted in ten 3-fold steps in DMSO starting from 10 mM DMSO stocks in Echo low volume plate(s). Compound dilutions or DMSO alone were then dispensed from the dilution plate(s) into Greiner black 384-well assay plate(s) (catalog #781086, 50 nL/well) using an Echo 550 acoustic liquid handler (Labcyte).
Frozen HeLa cells were thawed and transferred into HeLa assay medium (99% complete HeLa culture medium, 1% Pen/Strep) with 20 mL medium/vial of cells. The cells were spun down at 250 g in a table top centrifuge for 5 min and suspended in same volume of HeLa assay medium. The cells were then counted and adjusted to a density of 2×10^5 cells/mL in HeLa assay medium. Sterile L-tryptophan were added to the cells with final concentration of 300 uM L-tryptophan. A small aliquot (2 mL/plate) of HeLa cells were set aside and were not treated with IFNγ, to serve as the Max-E control.
HeLa cells with and without IFNγ were dispensed to the respective wells of 384-well assay plates containing the compounds. The plates were incubated for about 48 hours at a 37° C., 5% CO2 incubator. Afterwards, 12 μL of 0.5 M methyl isonipecotate in dimethyl sulfoxide were added into each well and the plates were sealed and incubated at 37° C. without CO2 overnight. The plates were centrifuged for 1 min at 200×g. The resulting fluorescence was measured in a Spectramax plate reader (Molecular Devices) with a 400 nm excitation filter and a 510 nm emission filter.
The fluorescence intensity of each well was corrected for the background observed in wells with non-IFNγ-treated cells and was expressed as a fraction of the intensity observed in wells of IFNγ-treated cells and DMSO only. Potencies were calculated by linear least squares fit to the four parameter logistic IC50 equation.
Compounds disclosed herein generally have IC50 of about 0.1 nM to about 20,000 nM, or more specifically, about 1 nM to about 10,000 nM, or more specifically, about 5 nM to about 5,000 nM, or more specifically, about 10 nM to about 1,000 nM, or still more specifically, about 10 nM to about 500 nM.

One may read the IC50 as the concentration that inhibits the measured activity by half. For `COc1c(F)cc(F)cc1C1CCN(C(=O)Cn2nc(C(=O)N3C[C@@H](C)O[C@@H](C)C3)c3c2CCC3)CC1` [Example 110, 1-[4-(3,5-difluoro-2-methoxyphenyl)piperidin-1-yl]-2-{3-[(2R,6S)-2,6-dimethylmorpholine-4-carbonyl]-5,6-dihydrocyclopenta[c]pyrazol-1(4H)-yl}ethan-1-one], the 50% inhibitory concentration (IC50) is 39.3 nM. The value for `C[C@@H]1CN(C(=O)c2nn(CC(=O)N3CCC(c4ccc(C(F)F)c(F)c4)CC3)c3c2CCC3)C[C@H](C)O1` [Example 140, 1-{4-[4-(difluoromethyl)-3-fluorophenyl]piperidin-1-yl}-2-{3-[(2R,6S)-2,6-dimethylmorpholine-4-carbonyl]-5,6-dihydrocyclopenta[c]pyrazol-1(4H)-yl}ethan-1-one] was 89 nM; that for `Cc1cc(Cl)ccc1C1CCN(C(=O)Cn2nc(C(=O)N3C[C@@H](C)O[C@@H](C)C3)c3c2CCC3)CC1` [Example 106, 1-[4-(4-chloro-2-methylphenyl)piperidin-1-yl]-2-{3-[(2R,6S)-2,6-dimethylmorpholine-4-carbonyl]-5,6-dihydrocyclopenta[c]pyrazol-1(4H)-yl}ethan-1-one] was 30.3 nM. Take `CCc1cccc(C2CCN(C(=O)Cn3nc(C(=O)N4C[C@@H](C)O[C@@H](C)C4)c4c3CCC4)CC2)c1` [Example 96, 2-{3-[(2R,6S)-2,6-dimethylmorpholine-4-carbonyl]-5,6-dihydrocyclopenta[c]pyrazol-1(4H)-yl}-1-[4-(3-ethylphenyl)piperidin-1-yl]ethan-1-one]: the IC50 is 21.5 nM. Take `C[C@@H]1CN(C(=O)c2nn(CC(=O)N3CCC(c4ccccc4OC(F)(F)F)CC3)c3c2CCC3)C[C@H](C)O1` [Example 163, 2-{3-[(2R,6S)-2,6-dimethylmorpholine-4-carbonyl]-5,6-dihydrocyclopenta[c]pyrazol-1(4H)-yl}-1-{4-[2-(trifluoromethoxy)phenyl]piperidin-1-yl}ethan-1-one]: the IC50 came out at 177 nM. The value for `C[C@@H]1CN(C(=O)c2nn(CC(=O)N3CCC(c4ccc(Cl)cc4)CC3)c3c2CCC3)C[C@H](C)O1` [Example 114, 1-[4-(4-chlorophenyl)piperidin-1-yl]-2-{3-[(2R,6S)-2,6-dimethylmorpholine-4-carbonyl]-5,6-dihydrocyclopenta[c]pyrazol-1(4H)-yl}ethan-1-one] was 45.8 nM; that for `C[C@@H]1CN(C(=O)c2nn(CC(=O)N3CCC(c4ccc5c(c4)CCO5)CC3)c3c2CCC3)C[C@H](C)O1` [Example 93, 1-[4-(2,3-dihydro-1-benzofuran-5-yl)piperidin-1-yl]-2-{3-[(2R,6S)-2,6-dimethylmorpholine-4-carbonyl]-5,6-dihydrocyclopenta[c]pyrazol-1(4H)-yl}ethan-1-one] was 17.8 nM.

As to `[2H]c1c([2H])c([2H])c(C2CCN(C(=O)Cn3nc(C(=O)N4C[C@@H](C)O[C@@H](C)C4)c4c3CCC4)CC2)c([2H])c1[2H]` [Example 143, 2-{3-[(2R,6S)-2,6-dimethylmorpholine-4-carbonyl]-5,6-dihydrocyclopenta[c]pyrazol-1(4H)-yl}-1-[4-(~2~H_5_)phenylpiperidin-1-yl]ethan-1-one], the IC50 is 102 nM.

As to `Cc1cc(F)cc(C2CCN(C(=O)Cn3nc(C(=O)N4C[C@@H](C)O[C@@H](C)C4)c4c3CCC4)CC2)c1` [Example 90, 2-{3-[(2R,6S)-2,6-dimethylmorpholine-4-carbonyl]-5,6-dihydrocyclopenta[c]pyrazol-1(4H)-yl}-1-[4-(3-fluoro-5-methylphenyl)piperidin-1-yl]ethan-1-one], the IC50 was found to be 9.9 nM. Consider `Cc1cccc(C2CCN(C(=O)Cn3nc(C(=O)N4CCC(O)CC4)c4c3CCC4)CC2)c1C` [Example 41, 1-(4-(2,3-dimethylphenyl)piperidin-1-yl)-2-(3-(4-hydroxypiperidine-1-carbonyl)-5,6-dihydrocyclopenta[c]pyrazol-1(4H)-yl)ethan-1-one], for which the half-inhibitory concentration (IC50) turned out to be 3.6 nM. The result for `Cc1cccc(C2CCN(C(=O)Cn3nc(C(=O)N4CCN(C(=O)CO)CC4)c4c3CCC4)CC2)c1C` [Example 47, 1-(4-(2,3-dimethylphenyl)piperidin-1-yl)-2-(3-(4-(2-hydroxyacetyl)piperazine-1-carbonyl)-5,6-dihydrocyclopenta[c]pyrazol-1(4H)-yl)ethanone] reads 17.6 nM; that for `CCc1ccc(C2CCN(C(=O)Cn3nc(C(=O)N4C[C@@H](C)O[C@@H](C)C4)c4c3CCC4)CC2)cc1` [Example 146, 2-{3-[(2R,6S)-2,6-dimethylmorpholine-4-carbonyl]-5,6-dihydrocyclopenta[c]pyrazol-1(4H)-yl}-1-[4-(4-ethylphenyl)piperidin-1-yl]ethan-1-one], 107 nM. The value for `C[C@@H]1CN(C(=O)c2nn(CC(=O)N3CCC(c4cc(Cl)cc(Cl)c4)CC3)c3c2CCC3)C[C@H](C)O1` [Example 167, 1-[4-(3,5-dichlorophenyl)piperidin-1-yl]-2-{3-[(2R,6S)-2,6-dimethylmorpholine-4-carbonyl]-5,6-dihydrocyclopenta[c]pyrazol-1(4H)-yl}ethan-1-one] was 274 nM. The value for `Cc1cc(F)ccc1C1CCN(C(=O)Cn2nc(C(=O)N3CCC(O)(CF)CC3)c3c2CCC3)CC1` [Example 53, 1-(4-(4-fluoro-2-methylphenyl)piperidin-1-yl)-2-(3-(4-(fluoromethyl)-4-hydroxypiperidine-1-carbonyl)-5,6-dihydrocyclopenta[c]pyrazol-1 (4H)-yl)ethanone] was 114 nM; that for `C[C@@H]1CN(C(=O)c2nn(CC(=O)N3CCC(c4cccc(F)c4F)CC3)c3c2CCC3)C[C@H](C)O1` [Example 121, 1-[4-(2,3-difluorophenyl)piperidin-1-yl]-2-{3-[(2R,6S)-2,6-dimethylmorpholine-4-carbonyl]-5,6-dihydrocyclopenta[c]pyrazol-1(4H)-yl}ethan-1-one] was 53.2 nM; that for `C[C@@H]1CN(C(=O)c2nn(CC(=O)N3CCC(c4ccc(Cl)cc4F)CC3)c3c2CCC3)C[C@H](C)O1` [Example 135, 1-[4-(4-chloro-2-fluorophenyl)piperidin-1-yl]-2-{3-[(2R,6S)-2,6-dimethylmorpholine-4-carbonyl]-5,6-dihydrocyclopenta[c]pyrazol-1(4H)-yl}ethan-1-one] was 83.4 nM.

`CC(C)c1ccc(C2CCN(C(=O)Cn3nc(C(=O)N4C[C@@H](C)O[C@@H](C)C4)c4c3CCC4)CC2)cc1` [Example 168, 2-{3-[(2R,6S)-2,6-dimethylmorpholine-4-carbonyl]-5,6-dihydrocyclopenta[c]pyrazol-1(4H)-yl}-1-{4-[4-(propan-2-yl)phenyl]piperidin-1-yl}ethan-1-one]: the IC50 was 296 nM. The result for `C[C@@H]1CN(C(=O)c2nn(CC(=O)N3CCC(c4cc(F)c(F)c(F)c4Cl)CC3)c3c2CCC3)C[C@H](C)O1` [Example 132, 1-[4-(2-chloro-3,4,5-trifluorophenyl)piperidin-1-yl]-2-{3-[(2R,6S)-2,6-dimethylmorpholine-4-carbonyl]-5,6-dihydrocyclopenta[c]pyrazol-1(4H)-yl}ethan-1-one] reads 80.2 nM; that for `Cc1ccc(C2CCN(C(=O)Cn3nc(C(=O)N4C[C@@H](C)O[C@@H](C)C4)c4c3CCC4)CC2)cc1C(F)(F)F` [Example 120, 2-{3-[(2R,6S)-2,6-dimethylmorpholine-4-carbonyl]-5,6-dihydrocyclopenta[c]pyrazol-1(4H)-yl}-1-{4-[4-methyl-3-(trifluoromethyl)phenyl]piperidin-1-yl}ethan-1-one], 52.5 nM; that for `C[C@@H]1CN(C(=O)c2nn(CC(=O)N3CCC(c4ccccc4C(F)(F)F)CC3)c3c2CCC3)C[C@H](C)O1` [Example 71, 2-{3-[(2R,6S)-2,6-dimethylmorpholine-4-carbonyl]-5,6-dihydrocyclopenta[c]pyrazol-1(4H)-yl}-1-{4-[2-(trifluoromethyl)phenyl]piperidin-1-yl}ethan-1-one], 107 nM.

For `Cc1cc(F)ccc1C1CCN(C(=O)Cn2nc(C(=O)N3CC[C@H](O)[C@H](F)C3)c3c2CCC3)CC1` [Example 56, 1-(4-(4-fluoro-2-methylphenyl)piperidin-1-yl)-2-(3-((3R,4S)-3-fluoro-4-hydroxypiperidine-1-carbonyl)-5,6-dihydrocyclopenta[c]pyrazol-1(4H)-yl)ethanone], the IC50 amounted to 199 nM.
